Data on two compounds can be found in patent US20170175081A1, “Methods of Obtaining Islet Cells” (The University Court of the University of Aberdeen, priority 2014, published 2017).

Test [1] concerns islet enriched pancreatic cells. Put plainly: Ad-KLF4 with and without Rho-kinase inhibitor Y27632, gene expression. Type of test: cell-based, human. As to conditions: Y27632 20 uM; up to 10 days post infection. Here is the method: FIG. 11. […] A one-way ANOVA was performed with Dunnett post hoc test comparing treatment groups. […] B: Samples were fixed and permeabilised at day 6 for E-cadherin and cleaved caspase-3.
Total RNA was extracted using TRIzol® and treated with DNaseI (both Life Technologies) followed by cDNA synthesis using 1 μg of RNA per sample. qRT-PCR mixtures were prepared using SensiMix II probe kit (Bioline, London, UK) and TaqMan gene expression assays (Applied Biosystems, Paisley, UK) as per manufacturer's instructions. cDNA was amplified on Roche LightCycler 480® for 50 cycles. Samples were run in triplicate and normalised to glyceraldehyde 3-phosphate dehydrogenase (GAPDH) and/or 60S ribosomal protein L13a (RPL13a). Data was analysed using the 2^−ΔΔCT method (Brodsky et al., 1999). Statistical analysis was performed using GraphPad Prism software and the Student t test or one-way/two-way ANOVA, followed by the Dunnett post hoc test, were used as appropriate.
We next hypothesised that adjusting the cell culture environment to promote survival of newly formed epithelial cells would enhance redifferentiation.

The test system of test [2] is reprogrammed human exocrine pancreatic cells. Put plainly: RT-qPCR of cells reprogrammed (siARX) with or without zinc. Format: cell-based. As to conditions: ZnCl2 10 μM; partly attributed to increased PAX4 mRNA. Here is the method:
FIG. 18. RT-qPCR analysis of the three main endocrine hormones insulin (INS), glucagon (GCG) and somatostatin (SST) and the transcription factors PDX1, PAX4, MAFA, NEUROD, NGN3 and NKX6.1 in untreated (N/A) or cells reprogrammed (siARX) in the absence or presence of ZnCl2 (10 μM). Expression was normalised to glyceraldehyde 3-phosphate dehydrogenase. Data are representative of triplicate experiments and represented as mean+/−standard error of the mean.
Human exocrine fractions were thawed and plated on tissue culture 9 cm^2 dishes (Greiner, Stonehouse, UK) and cultured for two days in RPMI 1640 (Gibco, Life Technologies) supplemented with 10% foetal bovine serum (FBS), 10 mM HEPES, 1 mM sodium pyruvate (all from Gibco) and 75 μM β-mercaptoethanol (Sigma Aldrich). After 48 h, the cells were incubated for another 72 h in serum free medium (SFM) prepared with RPMI 1640, insulin-transferrin-selenium (Gibco) and 1% bovine serum albumin (Sigma), supplemented with 10 μM SB431542, 2 μM Y27632, 1 μM 5-Aza-2′deoxycytidine and 10 mM sodium butyrate (all from Sigma). On the next day the cells were incubated for 4 h with the adenoviruses encoding pancreatic transcription factors PDX1, MAFA, NGN3 and PAX4. On the following day the medium was changed for SFM supplemented with 1 nM betacellulin (R&D systems, Abingdon, UK), 10 nM exendin-4 and 10 mM nicotinamide (both from Sigma). […]

Test [3] shares this test system. Put plainly: C-peptide ELISA of cell extracts, reprogrammed (siARX) with or without ZnCl2. Type of test: cell-based. As to conditions: ZnCl2 10 μM; p<0.01 relative to siARX. On the procedure:
FIG. 19. C-peptide ELISA measurements of cell extracts from untreated cells (N/A) or cells reprogrammed (siARX) in the absence or presence of ZnCl2 (10 μM). C-peptide levels were expressed level to protein content and represent […] (n=3). ***p<0.001 relative to NA and **p<0.01 relative to siARX.
Human exocrine fractions were thawed and plated on tissue culture 9 cm^2 dishes (Greiner, Stonehouse, UK) and cultured for two days in RPMI 1640 (Gibco, Life Technologies) supplemented with 10% foetal bovine serum (FBS), 10 mM HEPES, 1 mM sodium pyruvate (all from Gibco) and 75 μM β-mercaptoethanol (Sigma Aldrich). After 48 h, the cells were incubated for another 72 h in serum free medium (SFM) prepared with RPMI 1640, insulin-transferrin-selenium (Gibco) and 1% bovine serum albumin (Sigma), supplemented with 10 μM SB431542, 2 μM Y27632, 1 μM 5-Aza-2′deoxycytidine and 10 mM sodium butyrate (all from Sigma). On the next day the cells were incubated for 4 h with the adenoviruses encoding pancreatic transcription factors PDX1, MAFA, NGN3 and PAX4. On the following day the medium was changed for SFM supplemented with 1 nM betacellulin (R&D systems, Abingdon, UK), 10 nM exendin-4 and 10 mM nicotinamide (both from Sigma). The medium was changed every two days for another 6 days before harvesting. […]

Molecules are shown by their SMILES.

As for `C[C@@H](N)[C@H]1CC[C@H](C(=O)Nc2ccncc2)CC1` [Y27632], in test [1], the “gene expression, Ad-KLF4 with vs without Y27632” value is given as “no significant difference”.
In the case of `[Cl-].[Cl-].[Zn+2]` [ZnCl2], the insulin gene expression result in test [2] is “significant effect”. Moreover, in test [3], the “insulin (C-peptide) protein content” value is recorded as “stimulatory effect”.
